Where two headings read alike, the source gives them in different places.
System: HBV
Assay: HBV-DNA antiviral assay using HepG2.117 cells (intracellular HBV DNA by qPCR)
Assay type: cell-based, HBV genotype D
Conditions: HBV DNA inhibition, 3 days incubation, read-out: EC50
Summary of the method: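 HepG2.117 cells (stably integrated genotype D HBV, Tet-off) seeded without doxycycline to induce pgRNA, then treated next day with 9 concentrations (4-fold dilutions, 2% DMSO) for 3 days at 37 °C. Intracellular HBV DNA quantified by qPCR against standard curve, viability by ATP content; inhibition relative to DMSO control, EC50/EC90/CC50 by non-linear regression.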

[1] = Hepatitis B virus, HepG2.117, 72 h

Row | SMILES | EC50 | EC50 [1]
1 | Cc1nnc(-c2cccc(F)c2CNC(=O)c2c3n(c(=O)n2-c2ccc(OC4CC4)cc2)CC(C)N(C(=O)c2ccc(Br)c(C(F)(F)F)c2)C3)o1 (single isomer, unassigned) [Compound 33b] | < 50 nM | –
2 | CC1Cn2c(c(C(=O)NCc3ccccc3-c3ccccn3)n(-c3ccc(OC4CC4)cc3)c2=O)CN1C(=O)c1ccc(Br)c(C(F)(F)F)c1 (single isomer, unassigned) [Compound 34a] | – | < 50 nM
3 | CC1Cn2c(c(C(=O)NCc3c(F)cccc3-c3cccc(N)n3)n(-c3ccc(OC4CC4)cc3)c2=O)CN1C(=O)c1ccc(Br)c(Cl)c1 (single isomer, unassigned) [Compound 35a] | – | 50 to 500 nM
4 | CC1Cn2c(c(C(=O)NCc3c(F)cccc3-c3cccc(N)n3)n(-c3ccc(OC4CC4)cc3)c2=O)CN1C(=O)c1ccc(Br)c(Cl)c1 (single isomer, unassigned) [Compound 35b] | < 50 nM | –
5 | CC1Cn2c(c(C(=O)NCc3c(F)cccc3-c3cccc(N)n3)n(-c3ccc(OC4CC4)cc3)c2=O)CN1C(=O)c1ccc(Br)c(C(F)(F)F)c1 (single isomer, unassigned) [Compound 36a] | – | < 50 nM
6 | CC1Cn2c(c(C(=O)NCc3c(F)cccc3-c3cccc(N)n3)n(-c3ccc(OC4CC4)cc3)c2=O)CN1C(=O)c1ccc(Br)c(C(F)(F)F)c1 (single isomer, unassigned) [Compound 36b] | < 50 nM | –
7 | COc1nccc(-c2ccccc2CNC(=O)c2c3n(c(=O)n2-c2ccc(OC4CC4)cc2)CC(C)N(C(=O)c2ccc(Br)c(Cl)c2)C3)n1 (single isomer, unassigned) [Compound 37a] | – | 50 to 500 nM
8 | COc1nccc(-c2ccccc2CNC(=O)c2c3n(c(=O)n2-c2ccc(OC4CC4)cc2)CC(C)N(C(=O)c2ccc(Br)c(Cl)c2)C3)n1 (single isomer, unassigned) [Compound 37b] | < 50 nM | –
9 | COc1nccc(-c2ccccc2CNC(=O)c2c3n(c(=O)n2-c2ccc(OC4CC4)cc2)CC(C)N(C(=O)c2ccc(Br)c(C(F)(F)F)c2)C3)n1 (single isomer, unassigned) [Compound 38a] | – | < 50 nM
10 | COc1nccc(-c2ccccc2CNC(=O)c2c3n(c(=O)n2-c2ccc(OC4CC4)cc2)CC(C)N(C(=O)c2ccc(Br)c(C(F)(F)F)c2)C3)n1 (single isomer, unassigned) [Compound 38b] | < 50 nM | –
11 | CNc1cc(-c2ccccc2CNC(=O)c2c3n(c(=O)n2-c2ccc(OC4CC4)cc2)CC(C)N(C(=O)c2ccc(Br)c(C(F)(F)F)c2)C3)ncn1 (single isomer, unassigned) [Compound 40a] | – | < 50 nM
12 | CNc1cc(-c2ccccc2CNC(=O)c2c3n(c(=O)n2-c2ccc(OC4CC4)cc2)CC(C)N(C(=O)c2ccc(Br)c(C(F)(F)F)c2)C3)ncn1 (single isomer, unassigned) [Compound 40b] | < 50 nM | –
13 | CC1Cn2c(c(C(=O)NCc3ccccc3-c3cc(N)cnn3)n(-c3ccc(OC4CC4)cc3)c2=O)CN1C(=O)c1ccc(Br)c(Cl)c1 (single isomer, unassigned) [Compound 42a] | 500 to 5000 nM | –
14 | CC1Cn2c(c(C(=O)NCc3ccccc3-c3cc(N)cnn3)n(-c3ccc(OC4CC4)cc3)c2=O)CN1C(=O)c1ccc(Br)c(Cl)c1 (single isomer, unassigned) [Compound 42b] | 50 to 500 nM | –
15 | CC1Cn2c(c(C(=O)NCc3ccccc3-c3cc(N)cnn3)n(-c3ccc(OC4CC4)cc3)c2=O)CN1C(=O)c1ccc(Br)c(C(F)(F)F)c1 (single isomer, unassigned) [Compound 43a] | 500 to 5000 nM | –
16 | CC1Cn2c(c(C(=O)NCc3ccccc3-c3cc(N)cnn3)n(-c3ccc(OC4CC4)cc3)c2=O)CN1C(=O)c1ccc(Br)c(C(F)(F)F)c1 (single isomer, unassigned) [Compound 43b] | 50 to 500 nM | –
17 | CC1Cn2c(c(C(=O)NCc3ccccc3-c3c[nH]cn3)n(-c3ccc(OC4CC4)cc3)c2=O)CN1C(=O)c1ccc(Br)c(Cl)c1 (single isomer, unassigned) [Compound 44a] | – | 50 to 500 nM
18 | CC1Cn2c(c(C(=O)NCc3ccccc3-c3c[nH]cn3)n(-c3ccc(OC4CC4)cc3)c2=O)CN1C(=O)c1ccc(Br)c(Cl)c1 (single isomer, unassigned) [Compound 44b] | < 50 nM | –
19 | Cc1nnc(-c2cccc(F)c2CNC(=O)c2c3n(c(=O)n2-c2ccc(OC4CC4)cc2)CC(C)N(C(=O)c2ccc(Br)c(Cl)c2)C3)o1 (single isomer, unassigned) [Compound 45a] | – | 50 to 500 nM
20 | Cc1nnc(-c2cccc(F)c2CNC(=O)c2c3n(c(=O)n2-c2ccc(OC4CC4)cc2)CC(C)N(C(=O)c2ccc(Br)c(Cl)c2)C3)o1 (single isomer, unassigned) [Compound 45b] | 50 to 500 nM | –
21 | Cc1nc2cc(-n3c(C(=O)NCc4ccccc4-c4ccncn4)c4n(c3=O)CC(C)N(C(=O)c3ccc(Br)c(Cl)c3)C4)ccc2o1 (single isomer, unassigned) [Compound 46a] | – | 50 to 500 nM
22 | Cc1nc2cc(-n3c(C(=O)NCc4ccccc4-c4ccncn4)c4n(c3=O)CC(C)N(C(=O)c3ccc(Br)c(Cl)c3)C4)ccc2o1 (single isomer, unassigned) [Compound 46b] | < 50 nM | –

Row | SMILES | EC50 | EC50 [1]
23 | Cc1nnc(-c2ccccc2CNC(=O)c2c3n(c(=O)n2-c2ccc(OC4CC4)cc2)CC(C)N(C(=O)c2ccc(Br)c(C(F)(F)F)c2)C3)o1 (single isomer, unassigned) [Compound 47a] | – | < 50 nM
24 | Cc1nc2cc(-n3c(C(=O)NCc4ccccc4-c4ccncn4)c4n(c3=O)CC(C)N(C(=O)c3ccc(Br)c(C(F)(F)F)c3)C4)ccc2o1 (single isomer, unassigned) [Compound 48a] | – | 50 to 500 nM
25 | Cc1nc2cc(-n3c(C(=O)NCc4ccccc4-c4ccncn4)c4n(c3=O)CC(C)N(C(=O)c3ccc(Br)c(C(F)(F)F)c3)C4)ccc2o1 (single isomer, unassigned) [Compound 48b] | < 50 nM | –
26 | CC1Cn2c(c(C(=O)NCc3c(F)cccc3-c3cccnn3)n(-c3ccc(OC4CC4)cc3)c2=O)CN1C(=O)c1ccc(Br)c(Cl)c1 (single isomer, unassigned) [Compound 49a] | – | 50 to 500 nM
27 | CC1Cn2c(c(C(=O)NCc3c(F)cccc3-c3cccnn3)n(-c3ccc(OC4CC4)cc3)c2=O)CN1C(=O)c1ccc(Br)c(Cl)c1 (single isomer, unassigned) [Compound 49b] | 50 to 500 nM | –
28 | CC1Cn2c(c(C(=O)NCc3c(F)cccc3-c3cccnn3)n(-c3ccc(OC4CC4)cc3)c2=O)CN1C(=O)c1ccc(Br)c(C(F)(F)F)c1 (single isomer, unassigned) [Compound 50a] | – | 50 to 500 nM
29 | CC1Cn2c(c(C(=O)NCc3c(F)cccc3-c3cccnn3)n(-c3ccc(OC4CC4)cc3)c2=O)CN1C(=O)c1ccc(Br)c(C(F)(F)F)c1 (single isomer, unassigned) [Compound 50b] | < 50 nM | –
30 | CC1Cn2c(c(C(=O)NCc3ccccc3-c3cc[nH]n3)n(-c3ccc(OC4CC4)cc3)c2=O)CN1C(=O)c1ccc(Br)c(Cl)c1 (single isomer, unassigned) [Compound 51a] | – | 50 to 500 nM
31 | CC1Cn2c(c(C(=O)NCc3ccccc3-c3cc[nH]n3)n(-c3ccc(OC4CC4)cc3)c2=O)CN1C(=O)c1ccc(Br)c(Cl)c1 (single isomer, unassigned) [Compound 51b] | < 50 nM | –
32 | Cc1nnc(-c2ccccc2CNC(=O)c2c3n(c(=O)n2-c2ccc4oc(C)nc4c2)CC(C)N(C(=O)c2ccc(Br)c(Cl)c2)C3)o1 (single isomer, unassigned) [Compound 53a] | – | 50 to 500 nM
33 | Cc1nnc(-c2ccccc2CNC(=O)c2c3n(c(=O)n2-c2ccc4oc(C)nc4c2)CC(C)N(C(=O)c2ccc(Br)c(Cl)c2)C3)o1 (single isomer, unassigned) [Compound 53b] | 50 to 500 nM | –
34 | Cc1nnc(-c2ccccc2CNC(=O)c2c3n(c(=O)n2-c2ccc4oc(C)nc4c2)CC(C)N(C(=O)c2ccc(Br)c(C(F)(F)F)c2)C3)o1 (single isomer, unassigned) [Compound 54a] | – | < 50 nM
35 | Cc1nnc(-c2ccccc2CNC(=O)c2c3n(c(=O)n2-c2ccc4oc(C)nc4c2)CC(C)N(C(=O)c2ccc(Br)c(C(F)(F)F)c2)C3)o1 (single isomer, unassigned) [Compound 54b] | 50 to 500 nM | –
36 | CC1Cn2c(c(C(=O)NCc3ccccc3-c3cccnn3)n(-c3ccc(OC[C@@H](C)O)cc3)c2=O)CN1C(=O)c1ccc(Br)c(C(F)(F)F)c1 (single isomer, unassigned) [Compound 56a] | 500 to 5000 nM | –
37 | CC1Cn2c(c(C(=O)NCc3ccccc3-c3cccnn3)n(-c3ccc(OC[C@@H](C)O)cc3)c2=O)CN1C(=O)c1ccc(Br)c(C(F)(F)F)c1 (single isomer, unassigned) [Compound 56b] | 50 to 500 nM | –
38 | CC1Cn2c(c(C(=O)NCc3ccccc3-c3cccnn3)n(-c3ccc(OC[C@H](C)O)cc3)c2=O)CN1C(=O)c1ccc(Br)c(C(F)(F)F)c1 (single isomer, unassigned) [Compound 57a] | – | 50 to 500 nM
39 | CC1Cn2c(c(C(=O)NCc3ccccc3-c3ncccn3)n(-c3ccc(OC4CC4)cc3)c2=O)CN1C(=O)c1ccc(Br)c(C(F)(F)F)c1 (single isomer, unassigned) [Compound 59a] | – | < 50 nM
40 | CC1Cn2c(c(C(=O)NCc3ccccc3-c3ncccn3)n(-c3ccc(OC4CC4)cc3)c2=O)CN1C(=O)c1ccc(Br)c(C(F)(F)F)c1 (single isomer, unassigned) [Compound 59b] | < 50 nM | –
41 | CC1Cn2c(c(C(=O)NCc3ccccc3-c3ccccn3)n(-c3ccc(OC[C@@H](C)O)cc3)c2=O)CN1C(=O)c1ccc(Br)c(C(F)(F)F)c1 (single isomer, unassigned) [Compound 60a] | – | 50 to 500 nM
42 | CC1Cn2c(c(C(=O)NCc3ccccc3-c3ccncn3)n(-c3ccc(OC[C@@H](O)C(F)(F)F)cc3)c2=O)CN1C(=O)c1ccc(Br)c(C(F)(F)F)c1 (single isomer, unassigned) [Compound 62a] | – | < 50 nM
43 | CC1Cn2c(c(C(=O)NCc3ccccc3-c3ncccn3)n(-c3ccc(OC[C@@H](C)O)cc3)c2=O)CN1C(=O)c1ccc(Br)c(C(F)(F)F)c1 (single isomer, unassigned) [Compound 64a] | – | < 50 nM
